In patent US20250041312A1, “METHODS OF ADMINISTERING A MODULATOR OF HEMOGLOBIN” (Global Blood Therapeutics, Inc., priority 2021, published 2025):
Where two headings read alike, the source gives them in different places. Marks after values point to notes of the source that are not given here.

What was measured:
Assay type in all cases: in vivo, human
[1] = Single ascending dose (SAD) study in healthy volunteers: safety and tolerability (TEAEs)
Experimental: To evaluate the safety and tolerability of single ascending doses of Compound I, 48 healthy volunteers (42 in the fasted state and 6 in the fed state) aged 18 to 55 years old were administered single ascending doses (50 mg to 2200 mg) of Compound I, while 16 healthy volunteers (14 in the fasted state and 2 in the fed state) aged 18 to 55 years old were administered placebo in a double blind, randomized, sequential manner.
Primary endpoints were safety and tolerability; key secondary endpoints included PK and effect of food (high-fat meal).
The few that were considered drug-related resolved with little to no intervention.

[2] = MAD study in healthy volunteers: whole blood and plasma PK; details: for AUC(0-t): read-out: AUC0-24; for concentration at 14 day: read-out: Cmin
Experimental: Another study was initiated in healthy volunteer aged 18-55 years old to evaluate the safety and tolerability of multiple ascending doses of Compound I. Four cohorts of 10 subjects each (n=7 Compound I, n=3 placebo) were evaluated in a sequential double-blind manner. To reach steady state levels each subject received a loading dose regimen for 3 or 4 days followed by once daily medication for up to 14 days. Primary endpoints were safety and tolerability; key secondary endpoints included PK and effect on electrocardiogram (ECG) parameters. Table 7 below provides an overview of the doses of Compound I or placebo that were used in each cohort.
Preliminary whole blood PK parameters (geometric mean and % CV) and hemoglobin occupancy in healthy volunteers of the 15 mg, 25 mg, 50 mg, and 75 mg MAD cohorts are summarized in Table 10.

[3] = Single 100 mg dose PK in SCD subjects; details: for AUC(0-t) / Cmax / half-life / Tmax: human; for AUC(0-t) / Cmax: 100 mg; for Tmax: median
Experimental: The PK profile of a single 100 mg dose in whole blood and plasma was evaluated using standard noncompartmental analysis. The preliminary PK parameter estimates of Compound I in whole blood from SCD subjects differed from healthy subjects in terms of elimination t½, AUC, Tmax, and blood to plasma ratio. In brief, the elimination t½ and Tmax were nearly 3× faster or occurred earlier, respectively, in SCD than in healthy subjects, and the blood to plasma ratio was about 30% of the values in healthy subjects (most likely due to the fewer RBCs compared to healthy subjects). For the plasma compartment, the differences between the 2 populations were most notable in terms of elimination t1/2, which again was about 2.5 times faster in SCD.

[4] = HV single 50 mg, blinded, n=8 incl. placebo
[5] = HV single 50 mg, unblinded, n=6
[6] = HV single 100 mg, blinded, n=8 incl. placebo
[7] = HV single 100 mg, unblinded, n=6
[8] = HV single 200 mg fed (high-fat meal), blinded, n=8 incl. placebo
[9] = HV single 200 mg fed (high-fat meal), unblinded, n=6
[10] = HV single 200 mg, blinded, n=8 incl. placebo
[11] = HV single 200 mg, unblinded, n=6
[12] = HV single 400 mg, blinded, n=8 incl. placebo
[13] = HV single 400 mg, unblinded, n=6
[14] = HV single 800 mg, blinded, n=8 incl. placebo
[15] = HV single 800 mg, unblinded, n=6
[16] = HV single 1400 mg, blinded, n=8 incl. placebo
[17] = HV single 1400 mg, unblinded, n=6
[18] = HV single 2200 mg, blinded, n=8 incl. placebo
[19] = HV single 2200 mg, unblinded, n=6
[20] = plasma, SCD subjects n=6, single 100 mg, geometric mean
[21] = whole blood, SCD single 100 mg, mean
[22] = whole blood, SCD subjects n=6, single 100 mg, blood, geometric mean

## O=Cc1c(O)cccc1OC[C@@H]1COCCN1C(=O)c1cccnc1CCO [Compound I, (S)-2-hydroxy-6-((4-(2-(2-hydroxyethyl)nicotinoyl)morpholin-3-yl)methoxy)benzaldehyde]
[1]; HV SAD
  adverse events indicative of tissue hypoxia: no adverse events indicative of tissue hypoxia
[1]; HV SAD, blinded study
  grade of adverse events (CTCAE v5.0): mostly grade 1 or 2
[1]; [4]
  Number of SAEs: 0
  Number of TEAEs: 14
  Number of TEAEs grade ≥ 3: 0
  Number of TEAEs leading to study drug discontinuation: 0
  Number of drug-related TEAEs: 2
[1]; [5]
  Number of SAEs: 0
  Number of TEAEs: 11
  Number of TEAEs grade ≥ 3: 0
  Number of TEAEs leading to study drug discontinuation: 0
  Number of drug-related TEAEs: 1
[1]; [6]
  Number of SAEs: 0
  Number of TEAEs: 13
  Number of TEAEs grade ≥ 3: 0
  Number of TEAEs leading to study drug discontinuation: 0
  Number of drug-related TEAEs: 1
[1]; [7]
  Number of SAEs: 0
  Number of TEAEs: 10
  Number of TEAEs grade ≥ 3: 0
  Number of TEAEs leading to study drug discontinuation: 0
  Number of drug-related TEAEs: 1
[1]; [8]
  Number of SAEs: 0
  Number of TEAEs: 8
  Number of TEAEs grade ≥ 3: 1
  Number of TEAEs leading to study drug discontinuation: 0
  Number of drug-related TEAEs: 0
[1]; [9]
  Number of SAEs: 0
  Number of TEAEs: 7
  Number of TEAEs grade ≥ 3: 1
  Number of TEAEs leading to study drug discontinuation: 0
  Number of drug-related TEAEs: 0
[1]; [10]
  Number of SAEs: 0
  Number of TEAEs: 16
  Number of TEAEs grade ≥ 3: 0
  Number of TEAEs leading to study drug discontinuation: 0
  Number of drug-related TEAEs: 0
[1]; [11]
  Number of SAEs: 0
  Number of TEAEs: 15
  Number of TEAEs grade ≥ 3: 0
  Number of TEAEs leading to study drug discontinuation: 0
  Number of drug-related TEAEs: 0
[1]; [12]
  Number of TEAEs: 23^
  Number of TEAEs grade ≥ 3: 1^
  Number of TEAEs leading to study drug discontinuation: 0^
  Number of drug-related TEAEs: 1^
[1]; HV single 400 mg, blinded, n=8 incl. placebo, SAE was a traumatic brain injury, not drug related
  Number of SAEs: 1^c
[1]; [13]
  Number of TEAEs: 16^
  Number of TEAEs grade ≥ 3: 1^
  Number of TEAEs leading to study drug discontinuation: 0^
  Number of drug-related TEAEs: 1^
[1]; HV single 400 mg, unblinded, n=6, SAE was a traumatic brain injury, not drug related
  Number of SAEs: 1^c
[1]; [14]
  Number of SAEs: 0
  Number of TEAEs: 14
  Number of TEAEs grade ≥ 3: 0
  Number of TEAEs leading to study drug discontinuation: 0
  Number of drug-related TEAEs: 3
[1]; [15]
  Number of SAEs: 0
  Number of TEAEs: 10
  Number of TEAEs grade ≥ 3: 0
  Number of TEAEs leading to study drug discontinuation: 0
  Number of drug-related TEAEs: 3
[1]; [16]
  Number of SAEs: 0
  Number of TEAEs: 29
  Number of TEAEs grade ≥ 3: 0
  Number of TEAEs leading to study drug discontinuation: 0
  Number of drug-related TEAEs: 4
[1]; [17]
  Number of SAEs: 0
  Number of TEAEs: 26
  Number of TEAEs grade ≥ 3: 0
  Number of TEAEs leading to study drug discontinuation: 0
  Number of drug-related TEAEs: 4
[1]; [18]
  Number of SAEs: 0
  Number of TEAEs: 17
  Number of TEAEs grade ≥ 3: 0
  Number of TEAEs leading to study drug discontinuation: 0
  Number of drug-related TEAEs: 4
[1]; [19]
  Number of SAEs: 0
  Number of TEAEs: 18
  Number of TEAEs grade ≥ 3: 0
  Number of TEAEs leading to study drug discontinuation: 0
  Number of drug-related TEAEs: 4
[2]; HV MAD Day 14, 75 mg QD maintenance
  B:P ratio (mean AUC0-24 blood:mean AUC0-24 plasma): 140
[2]; human, HV MAD Day 14, 15 mg QD maintenance, whole blood
  AUC(0-t): 2840 µg·h/mL
[2]; human, HV MAD Day 14, 25 mg QD maintenance, whole blood
  concentration at 14 day: 135 µg/mL
[2]; human, HV MAD Day 14, 50 mg QD maintenance, whole blood, median
  Tmax: 3 h
[2]; human, HV MAD Day 14, 50 mg QD maintenance, whole blood
  AUC(0-t): 5140 µg·h/mL
[2]; human, HV MAD Day 14, 75 mg QD maintenance (loading 500/500/500/400 mg), whole blood
  Cmax: 308 µg/mL
[2]; human, HV MAD Day 14, 75 mg QD maintenance, whole blood
  concentration at 14 day: 297 µg/mL
[3]; SCD single 100 mg
  B:P ratio (mean AUC0-t blood:mean AUC0-t plasma): 69.3
[3]; SCD subjects n=6, single 100 mg
  B:P ratio AUC0-inf: 69.3
[3]; SCD subjects n=6, single 100 mg, blood, geometric mean
  t½: 235 h
[3]; [20]
  AUC(0-t): 67.2 µg·h/mL
  Cmax: 1.01 µg/mL
[3]; [21]
  AUC(0-t): 4690 µg·h/mL
  Cmax: 16.7 µg/mL
[3]; [22]
  AUC(0-t): 4540 µg·h/mL
  Cmax: 16.2 µg/mL
[3]; SCD single 100 mg, whole blood, mean, read-out: t1/2 (converted)
  half-life: 235 h
[3]; SCD single 100 mg, whole blood
  Tmax: 8 h
[3]; SCD subjects n=6, single 100 mg, plasma, geometric mean, read-out: t½ (converted)
  half-life: 252 h
[3]; SCD subjects n=6, single 100 mg, plasma
  Tmax: 1.5 h
[3]; single 100 mg
  blood to plasma ratio in SCD as share of the values in healthy subjects: about 30%
[3]; single 100 mg, plasma
  elimination t1/2 in plasma, times faster in SCD: about 2.5 times
[3]; single 100 mg, whole blood
  Tmax in whole blood, times earlier in SCD than in healthy subjects: ~3 ×
  elimination t½ in whole blood, times faster in SCD than in healthy subjects: ~3 ×
